The record followed here is patent publication US4223036A, “1-(1,3-Dioxolan-2-ylmethyl)-1H-1,2,4-triazoles” (Janssen Pharmaceutica N.V., priority 1979, dated 1980).

Assay [1] has as its system Candida albicans. As to the kind of experiment: Activity against vaginal candidosis in rats (lowest oral dose active at the 14th day after infection). Set-up: lowest effective oral dose (vaginal candidosis in rats): unit not given here. The conditions noted are these: oral once a day for two days, active at 14th day after infection; for lowest effective oral dose (vaginal candidosis in rats): Table I; for minimal effective dose: Candida albicans, 336 h. In kind it is in vivo, Female Wistar rats. The method, then:
Experiment A: Activity of Compounds (I) Against Vaginal Candidosis in Rats
Female Wistar rats of ±100 g body weight were used. They were ovariectomized and hysterectomized and after three weeks of recovery, 100 μg of oestradiol undecylate in sesame oil was given subcutaneously once a week for 3 consecutive weeks. The thus induced pseudooestrus was controlled by microscopic examination of vaginal smears. Food and water were left available ad libitum.
The rats were infected intravaginally with 8.10^5 cells of Candida albicans, grown on Sabouraud broth for 48 hours at 37° C. and diluted with saline. The date of infection varied from day +25 to day +32 after surgical intervention, depending on the appearance of signs of induced pseudo-oestrus.
The drugs under investigation were administered orally once a day for two days starting from the day of infection. For each experiment there were placebo treated controls. The results were assessed by taking vaginal smears with sterile swabs on several days after infection. The swabs were put into Sabouraud broth in petri-dishes and incubated for 48 hours a 37° C. If no growth of Candida albicans occured, i.e., when the animals were negative at the end of the experiment, this was due to drug administration because it never happened in placebo treated controls.
The Tables I, II and III below give the lowest oral dose of the drug under investigation which was found active at the 14th day after infection.

Assay [2] concerns Candida albicans. As to the kind of experiment: Activity against crop candidosis in turkeys (dose whereby crops of 50% of animals were completely negative). In kind it is in vivo. The conditions noted are these: medicated feed for 13 consecutive days. As to the method: Experiment B: Activity of Compounds (I) Against Crop Candidosis in Turkeys
Turkeys of 14 days old were infected in the crop with 4.10^6 Candida albicans cells, grown on Sabouraud broth for 48 hours at 37° C. and diluted with saline. The volume of the inoculum was 1 ml. The drug under investigation were premixed in 500 mg of lacton and thereafter admixed in 1000 g of meal without any additives. The concentration of the drug under investigation in the meal was expressed in mg/kg.
The animals were given the medicated feed for 13 consecutive days starting on the day of infection. At the end of the experiment all animals were sacrificed. At autopsy the crops were removed, emptied and grinded in an ultra-turrax mixer in 15 ml of sterile saline. Colony counting was done on Sabouraud agar and the results given in the Tables I, II and III represent the ED50, i.e., the dose of the drug whereby the crops of 50% of the animals were completely negative for Candida albicans.

The term minimal effective dose denotes the smallest amount tested that counted as effective.

With `O=C(Nc1ccc(OC[C@H]2CO[C@](Cn3ccnc3)(c3ccc(Cl)cc3Cl)O2)cc1)c1ccccc1` (relative stereo), the “lowest effective oral dose (vaginal candidosis in rats)” value (shortened to “lowest effective oral dose”) in the assay on Candida albicans [1] was 5. The “ED50 (crop candidosis in turkeys)” value in the assay with Candida albicans [2] (Table I) is given as 63 mg/kg of feed.
Taken in the same sequence, the figures for `O=C(Nc1ccc(OC[C@H]2CO[C@](Cn3ccnc3)(c3ccc(Cl)cc3Cl)O2)cc1)c1ccc(F)cc1` (relative stereo) were 5 and 16 mg/kg of feed.
On the same counts, the results for `O=C(Nc1ccc(OC[C@H]2CO[C@](Cn3ccnc3)(c3ccc(Cl)cc3Cl)O2)cc1)c1ccc(Br)cc1` (relative stereo) are 10 and 31 mg/kg of feed.
Taken in the same sequence, the figures for `COc1ccc(C(=O)Nc2ccc(OC[C@H]3CO[C@](Cn4ccnc4)(c4ccc(Cl)cc4Cl)O3)cc2)cc1` (relative stereo) were 40 and 16 mg/kg of feed.
For the compound `O=C(Nc1ccc(OC[C@H]2CO[C@](Cn3ccnc3)(c3ccc(Cl)cc3Cl)O2)cc1)Oc1ccccc1` (relative stereo), the “lowest effective oral dose” value in the assay on Candida albicans [1] worked out at 10. The “ED50 (crop candidosis in turkeys)” value in the assay with Candida albicans [2] (Table I) was 125 mg/kg of feed.
Taken in the same sequence, the figures for `Clc1ccc([C@@]2(Cn3ccnc3)OC[C@H](COc3ccc(N4CCOCC4)cc3)O2)c(Cl)c1` (relative stereo) were 2.5 and 16 mg/kg of feed.
Regarding `Clc1ccc([C@@]2(Cn3ccnc3)OC[C@H](COc3ccc(N4CCNCC4)cc3)O2)c(Cl)c1` (relative stereo), the “lowest effective oral dose” value in the assay on Candida albicans [1] is reported as 5. Besides, in the assay on Candida albicans [2] (Table I), the “ED50 (crop candidosis in turkeys)” value is 125 mg/kg of feed.
As to `O=CN1CCN(c2ccc(OC[C@H]3CO[C@](Cn4ccnc4)(c4ccc(Cl)cc4Cl)O3)cc2)CC1` (relative stereo), the “lowest effective oral dose” value with Candida albicans [1] is less than 10.
As for `CC(=O)N1CCN(c2ccc(OC[C@H]3CO[C@](Cn4ccnc4)(c4ccc(Cl)cc4Cl)O3)cc2)CC1` (relative stereo), in the assay with Candida albicans [1], the “lowest effective oral dose” value is reported as 2.5. For the same compound, the “ED50 (crop candidosis in turkeys)” value with Candida albicans [2] (Table I) was 8 mg/kg of feed.
For the compound `NC(=O)N1CCN(c2ccc(OC[C@H]3CO[C@](Cn4ccnc4)(c4ccc(Cl)cc4Cl)O3)cc2)CC1` (relative stereo), the “lowest effective oral dose” value with Candida albicans [1] amounted to 5. Besides, the “ED50 (crop candidosis in turkeys)” value in the assay on Candida albicans [2] (Table I) is 125 mg/kg of feed.
On the same counts, the results for `CNC(=O)N1CCN(c2ccc(OC[C@H]3CO[C@](Cn4ccnc4)(c4ccc(Cl)cc4Cl)O3)cc2)CC1` (relative stereo) are 2.5 and 16 mg/kg of feed.
For the compound `CCNC(=O)N1CCN(c2ccc(OC[C@H]3CO[C@](Cn4ccnc4)(c4ccc(Cl)cc4Cl)O3)cc2)CC1` (relative stereo), the “lowest effective oral dose” value in the assay with Candida albicans [1] turned out to be 10. Further, the “ED50 (crop candidosis in turkeys)” value in the assay with Candida albicans [2] (Table I) is given as 125 mg/kg of feed.
For `CNC(=S)N1CCN(c2ccc(OC[C@H]3CO[C@](Cn4ccnc4)(c4ccc(Cl)cc4Cl)O3)cc2)CC1` (relative stereo), the “lowest effective oral dose” value in the assay with Candida albicans [1] is on record as 2.5. The “ED50 (crop candidosis in turkeys)” value in the assay with Candida albicans [2] (Table I) is listed as 125 mg/kg of feed.
Consider `COC(=O)N1CCN(c2ccc(OC[C@H]3CO[C@](Cn4ccnc4)(c4ccc(Cl)cc4Cl)O3)cc2)CC1` (relative stereo), for which the “lowest effective oral dose” value in the assay with Candida albicans [1] is 2.5. Also, the “ED50 (crop candidosis in turkeys)” value in the assay with Candida albicans [2] (Table I) is recorded as 8 mg/kg of feed.
Regarding `CN1CCN(c2ccc(OC[C@H]3CO[C@](Cn4ccnc4)(c4ccc(Cl)cc4Cl)O3)cc2)CC1` (relative stereo), the “lowest effective oral dose” value in the assay on Candida albicans [1] worked out at 2.5.
For `CC(C)N1CCN(c2ccc(OC[C@H]3CO[C@](Cn4ccnc4)(c4ccc(Cl)cc4Cl)O3)cc2)CC1` (relative stereo), the “lowest effective oral dose” value in the assay on Candida albicans [1] turned out to be 2.5.
Regarding `CCCN1CCN(c2ccc(OC[C@H]3CO[C@](Cn4ccnc4)(c4ccc(Cl)cc4Cl)O3)cc2)CC1` (relative stereo), in the assay on Candida albicans [1], the “lowest effective oral dose” value worked out at 2.5. In the assay on Candida albicans [2] (Table I), the “ED50 (crop candidosis in turkeys)” value is recorded as 16 mg/kg of feed.
Taken in the same sequence, the figures for `CS(=O)(=O)N1CCN(c2ccc(OC[C@H]3CO[C@](Cn4ccnc4)(c4ccc(Cl)cc4Cl)O3)cc2)CC1` (relative stereo) were 1.25 and 31 mg/kg of feed.
In the case of `NC(=O)CN1CCN(c2ccc(OC[C@H]3CO[C@](Cn4ccnc4)(c4ccc(Cl)cc4Cl)O3)cc2)CC1` (relative stereo), the “lowest effective oral dose” value in the assay with Candida albicans [1] was found to be 1.25.
Compound `CCOC(=O)N1CCN(c2cccc(OC[C@H]3CO[C@](Cn4ccnc4)(c4ccc(Cl)cc4Cl)O3)c2)CC1` (relative stereo) had a minimal effective dose in the assay on Candida albicans [1] (Table III) of 2.5 mg/kg.
In the case of `CC(=O)Nc1cccc(OC[C@H]2CO[C@](Cn3ccnc3)(c3ccc(Cl)cc3Cl)O2)c1` (relative stereo) [3 (NHCOCH3), cis-N-{3-[2-(2,4-dichlorophenyl)-2-(1H-imidazol-1-ylmethyl)-1,3-dioxolan-4-ylmethoxy]phenyl}acetamide nitrate], the minimal effective dose in the assay on Candida albicans [1] (Table III) was 10 mg/kg. Further, the “ED50 (crop candidosis in turkeys)” value in the assay with Candida albicans [2] (Table III) is 63 mg/kg of feed.
In the assay on Candida albicans [1] (Table II), `CC(C)CN1CCN(c2ccc(OC[C@H]3CO[C@](Cn4cncn4)(c4ccc(Cl)cc4Cl)O3)cc2)CC1` (relative stereo) [CH2CH(CH3)2] came in with a minimal effective dose of 2.5 mg/kg. Further, in the assay with Candida albicans [2] (Table II), the “ED50 (crop candidosis in turkeys)” value was 31 mg/kg of feed.
On the same counts, the results for `CN1CCN(c2ccc(OC[C@H]3CO[C@](Cn4cncn4)(c4ccc(Cl)cc4Cl)O3)cc2)CC1` (relative stereo) [CH3] are 1.25 mg/kg and 16 mg/kg of feed.
As for `CC(C)N1CCN(c2ccc(OC[C@H]3CO[C@](Cn4cncn4)(c4ccc(Cl)cc4Cl)O3)cc2)CC1` (relative stereo) [CH(CH3)2], the minimal effective dose in the assay on Candida albicans [1] (Table II) was 2.5 mg/kg.
In the case of `CCC(C)N1CCN(c2ccc(OC[C@H]3CO[C@](Cn4cncn4)(c4ccc(Cl)cc4Cl)O3)cc2)CC1` (relative stereo) [CH(CH3)CH2CH3], the minimal effective dose in the assay on Candida albicans [1] (Table II) turned out to be 2.5 mg/kg. For the same compound, the “ED50 (crop candidosis in turkeys)” value with Candida albicans [2] (Table II) is 63 mg/kg of feed.
On the same counts, the results for `O=CN1CCN(c2ccc(OC[C@H]3CO[C@](Cn4cncn4)(c4ccc(Cl)cc4Cl)O3)cc2)CC1` (relative stereo) [CHO, cis-4-{4-[2-(2,4-dichlorophenyl)-2-(1H-1,2,4-triazol-1-ylmethyl)-1,3-dioxolan-4-ylmethoxy]phenyl}-1-piperazinecarboxaldehyde] are 1.25 mg/kg and 16 mg/kg of feed.
`O=C(c1ccccc1)N1CCN(c2ccc(OC[C@H]3CO[C@](Cn4cncn4)(c4ccc(Cl)cc4Cl)O3)cc2)CC1` (relative stereo) [COC6 H5, cis-1-benzoyl-4-{4-[2-(2,4-dichlorophenyl)-2-(1H-1,2,4-triazol-1-ylmethyl)-1,3-dioxolan-4-ylmethoxy]phenyl}piperazine] returned a minimal effective dose in the assay on Candida albicans [1] (Table II) of 1.25 mg/kg.
In the assay on Candida albicans [1] (Table II), `CC(=O)N1CCN(c2ccc(OC[C@H]3CO[C@](Cn4cncn4)(c4ccc(Cl)cc4Cl)O3)cc2)CC1` (relative stereo) [COCH3, cis-1-acetyl-4-{4-[2-(2,4-dichlorophenyl)-2-(1H-1,2,4-triazol-1-ylmethyl)-1,3-dioxolan-4-yl-methoxy]phenyl}piperazine] came in with a minimal effective dose of 1.25 mg/kg. Also, the “ED50 (crop candidosis in turkeys)” value in the assay with Candida albicans [2] (Table II) is listed as 8 mg/kg of feed.
On to `CNc1ccc(OC[C@H]2CO[C@](Cn3ccnc3)(c3ccc(Cl)cc3Cl)O2)cc1` (relative stereo) [NHCH3, cis-4-[2-(2,4-dichlorophenyl)-2-(1H-imidazol-1-ylmethyl)-1,3-dioxolan-4-ylmethoxy]-N-methylbenzenamine], for which the “lowest effective oral dose” value in the assay with Candida albicans [1] is 5.
The same measure, in the same setting: the same measure for `NC(=S)Nc1ccc(OC[C@H]2CO[C@](Cn3ccnc3)(c3ccc(Cl)cc3Cl)O2)cc1` (relative stereo) [NHCSNH2, cis-N-{4-[2-(2,4-dichlorophenyl)-2-(1H-imidazol-1-yl-methyl)-1,3-dioxolan-4-ylmethoxy]phenyl}thiourea]: 20.
Still for that read-out and setting: the same measure for `CCN1CCN(c2ccc(OC[C@H]3CO[C@](Cn4ccnc4)(c4ccc(Cl)cc4Cl)O3)cc2)CC1` (relative stereo) [drawing 49]: less than 2.5.
`CCOC(=O)N1CCN(c2ccc(OCC3COC(Cn4ccnc4)(c4ccc(OC)cc4)O3)cc2)CC1` (centres unmarked) [ethyl 4-{4-[2-(1H-imidazol-1-ylmethyl)-2-(4-methoxyphenyl)-1,3-dioxolan-4-ylmethoxy]phenyl}-1-piperazinecarboxylate (E)-2-butenedioate (2:1)] showed a minimal effective dose in the assay on Candida albicans [1] (Table III) of 2.5 mg/kg.
